Where “and” joins values, the source holds several entries; their conditions need not be identical. Equal values may be shown once. Ends that are not written are not given here.
Legend:
TEAD4 [1] = molecular target: T1, TEAD4 (Homo sapiens, UniProt Q15561); assay: In vitro DSS-cross-linking assay of TEAD4 oligomerization; format: biochemical; conditions: 5 µM protein, 30 min 30 °C, DSS 3 mM, SDS-PAGE
T1 construct: His; made in house; host or cells: Escherichia coli BL21(DE3)
Protocol: The deployed cross-linking reaction system contained 20 mM HEPES pH 7.5, 250 mM NaCl and 5 µM tested proteins with a total volume of 20 µl. This system was allowed to incubate for 30 min at 30 °C, and then combined with disuccinimidyl suberate (DSS) at a final concentration of 3 mM, and the mixtures were further incubated at 4 °C for 20 min. The cross-linking reaction was stopped by adding 1 M Tris HCl (pH 8.5) to the incubated mixture at 4 °C, and allowing the mixture to sit for 10 min, and then boiling it in 1×SDS loading buffer to provide samples for SDS-PAGE analysis.

TEAD4 [2] = molecular target: T1, TEAD4; assay: FRAP of TEAD4 droplets formed from purified protein; format: biochemical; conditions: purified TEAD4 protein treated with FAM-GLUP
Text: (A) Schematic of the strategy of the initial version of a linker peptide termed “glup”. […] The two TEAD4 molecules are colored cyan and blue, respectively. […] Monomer, dimer, and oligomer TEAD4 bands are labeled. (D) Schematic illustration of an optimized version of the linker peptide (referred to as GLUP). […] (F) Comparison of glup with GLUP. MW, molecular weight. […] The quantification graph represents the data collected from 10 images (n = 10). Data shown as means ± SD represent the representative results from two independent experiments. Significance was tested using one-way ANOVA, followed by the Tukey’s post-hoc test. *p < 0.05; ****p < 0.0001. NaCl (+), 20 mM; NaCl (++), 150 mM; NaCl (+++), 500 mM. Scale bar, 10 μm. […] For each photobleached spot, the fluorescence recovery curve was traced. The graph represents the data collected from 5 droplets (n = 5). t1/2: fluorescence recovery time; Rf: mobile fraction. […] The quantification graph represents the data collected from 9 cells (n = 9). […] The data were analyzed using one-way ANOVA, followed by the Tukey’s post-hoc test. n.s., no significance; ****p < 0.0001. […] Three images were gradually taken during pre-bleach, bleaching pulses, followed by fluorescence recovery as indicated on the graph (left). […] White circles indicated the bleaching condensates. t1/2: fluorescence recovery time; Rf: mobile fraction. […]

CTGF = assay: RNA-scope of CTGF in tumor tissues; format: in vivo, mouse; conditions: tumors of GLUP-treated mice
Protocol: RNA-scope was performed according to manufacturer’s protocols (RNAscope Red Detection Kit, ACDbio, 322360). Briefly, the tumor sections (3 μm thickness) were obtained from MNU-generated gastric tumor tissues. The sections were deparaffinized, retrieved, and then hybridized with Ctgf probes following the manufacturer’s instructions (ACD, Hayward, CA, USA). Subsequently, the signal of hybridized probes was further visualized using RED dye-labeled probes. Finally, the samples were redyed, this time with hematoxylin, and mounted with VectaMount Permanent Mounting Medium (Vector Laboratories, Burlingame, CA, USA), and photographed using a Nikon Upright Fluorescence Microscope (Nikon, Japan). Positive and negative control probes were used for each experiment to help derive conclusions from the data.

[3] = system: GFP-TEAD4 condensates in HEK293FT cells; assay: GFP-TEAD4 condensate imaging, condensed fraction in cells; format: cell-based; conditions: HEK293FT, GLUP 10 μg/ml (5 μM) 12 h; individual cells, n = 9
[4] = Toxicity analysis (blood testing, blood biochemistry, pathology); format: in vivo, mouse; conditions: BALB/c mice, GLUP 1 or 10 mg/kg i.p. every 2 days, 14 days
Protocol: Healthy BALB/c mice (~8 weeks, n = 5) were injected intraperitoneally with GLUP (1, 10 mg/kg, respectively, every 2 days), and mice of the control group were injected with saline (10 ml/kg, n = 5). The mice were continuously observed for 14 days after the administration and then sacrificed for routine blood testing (of white blood cells, red blood cells, platelets, lymphocytes, monocytes, and neutrophils), examination of the blood biochemistry (hemoglobin, albumin, glucose, creatinine, urea, AST, and ALT) and pathology examination.

TEAD4-DNA = molecular target: T2, TEAD4-DNA (Homo sapiens, UniProt Q15561); assay: DAPI imaging of M-CAT DNA organization with purified proteins; format: biochemical; conditions: GLUP 1 μg/ml (0.5 μM)
T2 construct: His; made in house; host or cells: Escherichia coli BL21(DE3)
T2 sequence (Q15561 whole entry): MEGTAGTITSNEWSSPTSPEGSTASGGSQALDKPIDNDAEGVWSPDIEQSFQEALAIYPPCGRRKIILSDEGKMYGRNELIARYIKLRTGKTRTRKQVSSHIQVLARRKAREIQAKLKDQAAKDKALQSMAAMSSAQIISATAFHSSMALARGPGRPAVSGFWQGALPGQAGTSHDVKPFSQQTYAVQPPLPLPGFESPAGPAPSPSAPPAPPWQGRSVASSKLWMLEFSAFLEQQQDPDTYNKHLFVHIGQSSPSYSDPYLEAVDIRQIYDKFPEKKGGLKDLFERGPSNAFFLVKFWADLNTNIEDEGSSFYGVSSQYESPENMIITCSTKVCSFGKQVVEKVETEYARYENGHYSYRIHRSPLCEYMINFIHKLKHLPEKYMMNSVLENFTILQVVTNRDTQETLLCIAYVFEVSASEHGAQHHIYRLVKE
Protocol: LLPS is considered as principle for chromosome compartmentalization and condensation (Hildebrand and Dekker, [2020]; Shin et al, [2018]). […] To test this hypothesis, we used confocal microscopy to observe the morphology of M-CAT DNA (Fig. 4D). […] When VGLL4 protein was added into the mixture, the DNA chains appeared more aggregated and tangled (Fig. 4D).
To confirm cellular entry of GLUP, we performed immunostaining of live cells treated with a fluorescein-labeled version of the peptide (FAM-GLUP). […] We then examined the potential effect of GLUP on TEAD4-mediated perturbation of DNA conformation.

T1 sequence (Q15561 whole entry): as above

Substance: RRVCVHFHFSLSLR-NH2 (C-terminus assumed) [glup]
- TEAD4 oligomerization in DSS cross-linking (TEAD4 [1]): induced TEAD4 oligomerization in a concentration-dependent manner
- TEAD4 oligomerization in DSS cross-linking (TEAD4 [1]; listed as GLUP): strongly induced TEAD4 oligomerization
- mobile fraction (FRAP) (TEAD4 [2]): about 86%
- Expression of TEAD4 target gene CTGF in tumor tissue (CTGF): sharply decreased in a dose-dependent manner
- Condensed fraction of GFP-TEAD4 [3]: 25.1852% and 50.001% and 27.6986% and 34.6228% and 22.4908% and 43.1106% and 47.5218% and 38.4928% and 44.4447%
- Blood findings upon GLUP treatment [4]: a range of blood biochemical abnormalities e.g., in numbers of platelets and neutrophils
- Effect on TEAD4-mediated DNA conformation (TEAD4-DNA): strongly promoted TEAD4-mediated formation of DNA aggregations and tangles

Source: article PMC11574045, “A cofactor-induced repressive type of transcription factor condensation can be induced by synthetic peptides to suppress tumorigenesis” (The EMBO Journal, 2024)
